Data taken from publication PMC6271338, “Synthesis and Cytotoxic Evaluation of Alkoxylated Chalcones” (Molecules, 2014).

How the values were obtained:
HeLa cells = test: In vitro anti-proliferative SRB assay, HeLa; format: cell-based, human; settings: for IC50: Homo sapiens, HeLa, increasing concentrations up to 30 μM, mean ± SD of at least three independent experiments; for SI (CC50 HMLE/IC50 Hela) / SI (CC50 L02/IC50 Hela): selectivity index; for SI (CC50 HMLE/IC50 Hela): HMLE vs HeLa; for SI (CC50 L02/IC50 Hela): L02 vs HeLa
Description: (§1) HepG2 and MCF7 cells were grown in the Eagle’s minimum essential medium with Earle’s balanced salts (MEM-EBSS) medium, HeLa, A549 and L02 cells were grown in Dulbecco’s Modified Eagle Media (DMEM), SW1990 cells were grown in RPMI-1640 medium, and HMLE cell were grown in DMEM/F-12 medium. […]
(§2) Cells were seeded into 96-well plates (4000 cells/well) and incubated at 37 °C in a humidified 5% CO2 atmosphere. After 24 h, the cells were treated with different concentrations of the compounds for 48 h in triplicate to generate dose-response curves. Cell viability was evaluated using the sulforhodamine B (SRB) assay as previous described.

[1] = Cytotoxicity (SRB) against non-tumoral HMLE cells; format: cell-based, human; settings: human, HMLE cells (non-tumoral human mammary epithelial cells); increasing concentrations up to 100 μM; mean ± SD of at least three independent experiments; read-out: Normal Human Cell Lines, CC50, HMLE
Description: (§3) All compounds were also evaluated for their cytotoxic activity against two non-tumoral human cell lines named human mammary epithelial cell (HMLE) and L02 (a human liver cell line) in Table 2 and SI values between the CC50 in non-tumoral cell lines and IC50 in tumoral cells calculated.
as §1
as §2, with “described. […] Etoposide was used as the positive control.” for “described.”

HepG2 cells = test: In vitro anti-proliferative SRB assay, HepG2; format: cell-based, human; settings: for IC50: Homo sapiens, HepG2, increasing concentrations up to 30 μM, mean ± SD of at least three independent experiments; for SI (CC50 HMLE/IC50 HepG2) / SI (CC50 L02/IC50 HepG2): selectivity index; for SI (CC50 HMLE/IC50 HepG2): HMLE vs HepG2; for SI (CC50 L02/IC50 HepG2): L02 vs HepG2
Description: as §1, §2

SW1990 cells = test: In vitro anti-proliferative SRB assay, SW1990; format: cell-based, human; settings: for SI (CC50 HMLE/IC50 SW1990) / SI (CC50 L02/IC50 SW1990): selectivity index; for SI (CC50 HMLE/IC50 SW1990): HMLE vs SW1990; for SI (CC50 L02/IC50 SW1990): L02 vs SW1990; for IC50: Homo sapiens, SW1990, increasing concentrations up to 30 μM, mean ± SD of at least three independent experiments
Description: as §1, §2

[2] = Cytotoxicity (SRB) against non-tumoral L02 cells; format: cell-based, human; settings: human, L02 cells (non-tumoral human liver cell line); increasing concentrations up to 100 μM; mean ± SD of at least three independent experiments; read-out: Normal Human Cell Lines, CC50, L02
Description: as §3, §1
as §2, with “described. […] Etoposide was used as the positive control.” for “described.”

MCF-7 cells = test: In vitro anti-proliferative SRB assay, MCF-7; format: cell-based, human; settings: for IC50: Homo sapiens, MCF7, increasing concentrations up to 30 μM, mean ± SD of at least three independent experiments; for SI (CC50 HMLE/IC50 MCF7) / SI (CC50 L02/IC50 MCF7): selectivity index; for SI (CC50 HMLE/IC50 MCF7): HMLE vs MCF7; for SI (CC50 L02/IC50 MCF7): L02 vs MCF7
Description: as §1, §2

A549 cells = test: In vitro anti-proliferative SRB assay, A549; format: cell-based, human; settings: for IC50: Homo sapiens, A549, increasing concentrations up to 30 μM, mean ± SD of at least three independent experiments; for SI (CC50 HMLE/IC50 A549) / SI (CC50 L02/IC50 A549): selectivity index; for SI (CC50 HMLE/IC50 A549): HMLE vs A549; for SI (CC50 L02/IC50 A549): L02 vs A549
Description: as §1, §2

Row | Compound | IC50 (HeLa cells) [µM] | IC50 (HepG2 cells) [µM] | melting point [°C] | IC50 (MCF-7 cells) [µM] | IC50 (A549 cells) [µM] | IC50 (SW1990 cells) [µM] | SI (CC50 HMLE/IC50 Hela) (HeLa cells) | SI (CC50 L02/IC50 Hela) (HeLa cells) | CC50 at 48 h [1] [µM] | SI (CC50 HMLE/IC50 HepG2) (HepG2 cells) | SI (CC50 L02/IC50 HepG2) (HepG2 cells) | SI (CC50 HMLE/IC50 SW1990) (SW1990 cells) | SI (CC50 L02/IC50 SW1990) (SW1990 cells) | CC50 at 48 h [2] [µM] | SI (CC50 HMLE/IC50 MCF7) (MCF-7 cells) | SI (CC50 L02/IC50 MCF7) (MCF-7 cells) | SI (CC50 HMLE/IC50 A549) (A549 cells) | SI (CC50 L02/IC50 A549) (A549 cells)
1 | CCOc1cc(OC)ccc1C(=O)/C=C/c1c(OC)cccc1OC [b17, (E)-1-(2-Ethoxy-4-methoxyphenyl)-3-(2,6-dimethoxyphenyl)prop-2-en-1-one] | 8.54 ± 0.14 | 12 ± 0.23 | 98.7 to 100.2 | 7.74 ± 0.1 | 9.33 ± 0.3 | – | 1.1 | 1.3 | 9.03 ± 0.8 | 0.8 | 0.9 | 0.8 | 1.0 | 10.9 ± 0.42 | 1.2 | 1.4 | 1.0 | 1.2
2 | COc1ccc(C(=O)/C=C/c2c(OC)cccc2OC)c(O)c1 [b28, (E)-1-(2-Hydroxy-4-methoxyphenyl)-3-(2,6-dimethoxyphenyl)prop-2-en-1-one] | 17 ± 0.65 | 19.5 ± 0.79 | 143.5 to 144.7 | 28.4 ± 1.25 | 17.4 ± 0.97 | 28.3 ± 0.26 | 1.0 | >5.9 | 16.2 ± 2.48 | 0.8 | >5.1 | 0.6 | >3.5 | > 100 | 0.6 | >3.5 | 0.9 | >5.8
3 | COc1ccc(C(=O)/C=C/c2c(OC)cccc2OC)c(OCc2ccccc2)c1 [b14, (E)-1-(2-(Benzyloxy)-4-methoxyphenyl)-3-(2,6-dimethoxyphenyl)prop-2-en-1-one] | > 30 | > 30 | 82.2 to 83.6 | > 30 | > 30 | > 30 | – | – | > 100 | – | – | – | – | > 100 | – | – | – | –
4 | COc1ccc(C(=O)/C=C/c2c(OC)cccc2OC)cc1OC [b19, (E)-1-(3,4-Dimethoxyphenyl)-3-(2,6-dimethoxyphenyl)prop-2-en-1-one] | 9.26 ± 0.04 | 7.12 ± 0.67 | 120.5 to 122.7 | 19.7 ± 0.2 | 13.6 ± 0.85 | 13.84 ± 0.06 | 1.1 | 4.3 | 10.5 ± 0.41 | 1.5 | 5.6 | 0.8 | 2.9 | 39.8 ± 6.32 | 0.5 | 2.0 | 0.8 | 2.9
5 | COc1cccc(OC)c1/C=C/C(=O)c1ccccc1O [b24, (E)-1-(2-Hydroxyphenyl)-3-(2,6-dimethoxyphenyl)prop-2-en-1-one] | 13.4 ± 0.74 | 7.77 ± 0.08 | 114.2 to 115.9 | 10.7 ± 0.38 | 8.64 ± 0.31 | 16.1 ± 0.32 | 0.7 | 1.8 | 8.96 ± 0.44 | 1.2 | 3.1 | 0.6 | 1.5 | 24.2 ± 2.71 | 0.8 | 2.3 | 1.0 | 2.8
6 | COc1cccc(OC)c1/C=C/C(=O)c1ccc(OCc2ccccc2)cc1 [b13, (E)-1-(4-(Benzyloxy)phenyl)-3-(2,6-dimethoxyphenyl)prop-2-en-1-one] | > 30 | 21.8 ± 0.62 | 96.6 to 97.8 | > 30 | > 30 | > 30 | – | – | > 100 | >4.6 | >4.6 | – | – | > 100 | – | – | – | –
7 | COc1cccc(OC)c1/C=C/C(=O)c1ccc2c(c1)CCO2 [b21, (E)-1-(2,3-Dihydrobenzofuran-5-yl)-3-(2,6-dimethoxyphenyl)prop-2-en-1-one] | 21.6 ± 0.43 | 17.3 ± 0.23 | 118.8 to 120.2 | 22.6 ± 2.1 | 22.3 ± 0.99 | 24.4 ± 0.6 | 0.7 | 2.7 | 14.6 ± 0.81 | 0.8 | 3.3 | 0.6 | 2.4 | 57.5 ± 13.6 | 0.6 | 2.5 | 0.7 | 2.6

The next lines start with results.

Row | IC50 (HeLa cells) [µM] | IC50 (HepG2 cells) [µM] | melting point [°C] | IC50 (MCF-7 cells) [µM] | IC50 (A549 cells) [µM] | IC50 (SW1990 cells) [µM] | Compound | SI (CC50 HMLE/IC50 Hela) (HeLa cells) | SI (CC50 L02/IC50 Hela) (HeLa cells) | CC50 at 48 h [1] [µM] | SI (CC50 HMLE/IC50 HepG2) (HepG2 cells) | SI (CC50 L02/IC50 HepG2) (HepG2 cells) | SI (CC50 HMLE/IC50 SW1990) (SW1990 cells) | SI (CC50 L02/IC50 SW1990) (SW1990 cells) | CC50 at 48 h [2] [µM] | SI (CC50 HMLE/IC50 MCF7) (MCF-7 cells) | SI (CC50 L02/IC50 MCF7) (MCF-7 cells) | SI (CC50 HMLE/IC50 A549) (A549 cells) | SI (CC50 L02/IC50 A549) (A549 cells)
8 | 9.56 ± 0.33 | 7.27 ± 0.13 | 138.1 to 139.7 | 8.92 ± 0.25 | 12.7 ± 0.28 | 21 ± 0.43 | COc1cccc(OC)c1/C=C/C(=O)c1cccc(O)c1 [b25, (E)-1-(3-Hydroxyphenyl)-3-(2,6-dimethoxyphenyl)prop-2-en-1-one] | 0.7 | 2.1 | 6.31 ± 0.13 | 0.9 | 2.7 | 0.3 | 0.9 | 19.6 ± 1.29 | 0.7 | 2.2 | 0.5 | 1.5
9 | 17.4 ± 0.39 | 24.6 ± 0.36 | 108.2 to 109.6 | 32.2 ± 1.34 | > 30 | > 30 | COc1cccc(OC)c1/C=C/C(=O)c1ccc(F)cc1 [b33, (E)-1-(4-Fluorophenyl)-3-(2,6-dimethoxyphenyl)prop-2-en-1-one] | 0.7 | 3.7 | 12.7 ± 2.35 | 0.5 | 2.6 | <0.4 | <2.1 | 63.9 ± 13.8 | 0.4 | 2.0 | <0.4 | <2.1
10 | 20.7 ± 0.78 | 21.6 ± 0.97 | 105.4 to 107.3 | 25.5 ± 0.78 | 27.2 ± 1.39 | 28.38 ± 0.27 | COc1cccc(OC)c1/C=C/C(=O)c1cccc(F)c1 [b32, (E)-1-(3-Fluorophenyl)-3-(2,6-dimethoxyphenyl)prop-2-en-1-one] | 0.6 | 3.5 | 11.9 ± 1.28 | 0.6 | 3.3 | 0.4 | 2.5 | 72 ± 12.1 | 0.5 | 2.8 | 0.4 | 2.7
11 | 13.3 ± 2.14 | 12.8 ± 0.5 | 102.5 to 103.8 | 26.8 ± 4.26 | 20.7 ± 0.59 | 25.2 ± 2 | COc1cccc(OC)c1/C=C/C(=O)c1cccc(C)c1 [b3, (E)-1-(3-Methylphenyl)-3-(2,6-dimethoxyphenyl)prop-2-en-1-one] | 1.2 | 2.5 | 16.2 ± 0.19 | 1.3 | 2.6 | 0.6 | 1.3 | 33.3 ± 1.61 | 0.6 | 1.2 | 0.8 | 1.6
